Assays:
[1] = molecular target: T1, PDE3A catalytic domain (PDE3Acat) (Homo sapiens, UniProt Q14432); test: Phosphodiesterase inhibitory activity, recombinant PDE3Acat, [3H]cAMP; type: biochemical; details: 30° C. 20 minutes, read-out: IC50 (μmol/L) PDE3
T1 construct: isolate the cDNA of a PDE3A catalytic domain; made in house; host or cells: Sf9 insect cells (baculovirus, Bac-to-Bac / Gateway)

PDE4Bcat = molecular target: T2, PDE4Bcat (Homo sapiens, UniProt Q07343); test: Phosphodiesterase inhibitory activity, recombinant PDE4Bcat, [3H]cAMP; type: biochemical; details: 30° C. 20 minutes, read-out: IC50 (μmol/L) PDE4
T2 construct: made in house; host or cells: Sf9 insect cells (baculovirus, Bac-to-Bac / Gateway)

[2] = system: LPS acute inflammation model in rats; test: LPS acute inflammation model in rats (total leukocytes in BALF); type: in vivo, rat; details: 10 mg/kg orally one hour before LPS inhalation, BALF 3 hours after LPS inhalation
Procedure: 10 mg/kg of the compounds were orally administered to rats one hour before inhalation of a lipopolysaccharide from E. coli serotype 055:B5 (LPS), and the rats were made to inhale 50 ml of the LPS solution nebulized using a nebulizer for 30 minutes. Then, 3 hours after LPS inhalation, the rats were euthanized with 20% urethane (5 ml/rat, i.p.). 5 ml of physiological saline for bronchoalveolar lavage was injected into the bronchial tubes and alveoli through the airway, and the bronchial tubes and alveoli were washed three times using a 5 mL syringe. This operation was repeated twice, and the solution was collected as bronchoalveolar lavage fluid (BALF). The collected BALF was centrifuged at 1200 rpm and 4° C. for 10 minutes (Hirtachi; himac CR 5 DL). The pellet was re-suspended in 10 ml of a 0.1% bovine serum albumin-physiological saline, and an equivalent amount of Turk's solution was added thereto to stain leukocytes. The total number of leukocytes was counted under a microscope to calculate the inhibition rate. Further, the indications were as follows: inhibition rate≧80% (+++), 80%≧inhibition rate≧60% (++), and 60%>inhibition rate≧40% (+).

[3] = system: histamine-induced bronchoconstriction in guinea pigs; test: Histamine-induced bronchoconstriction reaction in guinea pigs; type: in vivo, guinea pig; details: Cavia porcellus, iv, 0.5 min, compound 0.3 mg/kg i.v., measured 30 seconds after administration, histamine 12.5 μg/kg i.v., read-out: Inhibition rate (histamine-induced bronchoconstriction)
Procedure: Guinea pigs were anesthetized with pentobarbital (30 mg/kg, i.p.). A cannula for intravenous administration, a cannula for collecting blood and measuring blood pressure, and a tracheal cannula were inserted into the left external jugular vein, right internal carotid artery, and trachea, respectively. The guinea pigs were maintained on artificial respiration under conditions of 60 times/min and 10 mL/kg/stroke. The overflowing air from the side branch of the tracheal cannula was measured by a bronchospasm transducer (Ugo-Basile) and recorded on a computer via Power Lab (ADInstruments Japan). The guinea pigs were immobilized with gallamine (10 mg/kg, i.v.), and histamine (12.5 μg/kg, i.v.) was administered at 10-minute intervals. After the histamine-induced bronchoconstriction became stable, the compound (0.3 mg/kg, i.v.) was administered. The histamine-induced bronchoconstriction reaction was measured 30 seconds after the compound administration to examine the bronchoconstriction inhibitory activity of the compound. The bronchoconstriction was recorded as the airflow value, and the results were represented by the ratio of the maximum value of the histamine-induced airflow 30 seconds after administration to the maximum value of the airflow before administration. Also, the test compounds dissolved in DMSO were used. Further, the indications were as follows: inhibition rate≧90% (+++), 90%>inhibition rate≧80% (++), and 80%>inhibition rate≧60% (+).

T1 sequence (Q14432 674-1093 limits assumed): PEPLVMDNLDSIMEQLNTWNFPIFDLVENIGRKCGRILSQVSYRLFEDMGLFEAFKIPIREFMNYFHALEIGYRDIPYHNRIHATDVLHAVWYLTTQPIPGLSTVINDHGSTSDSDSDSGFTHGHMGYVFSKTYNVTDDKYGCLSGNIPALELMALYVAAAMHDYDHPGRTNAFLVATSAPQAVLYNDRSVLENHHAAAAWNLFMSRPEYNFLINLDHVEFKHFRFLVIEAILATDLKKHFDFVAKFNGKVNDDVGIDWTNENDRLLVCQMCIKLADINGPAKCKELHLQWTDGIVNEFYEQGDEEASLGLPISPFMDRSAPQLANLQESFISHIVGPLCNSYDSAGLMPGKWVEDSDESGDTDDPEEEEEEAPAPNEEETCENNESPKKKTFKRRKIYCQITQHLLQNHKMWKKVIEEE
T2 sequence (Q07343 330-659 limits assumed): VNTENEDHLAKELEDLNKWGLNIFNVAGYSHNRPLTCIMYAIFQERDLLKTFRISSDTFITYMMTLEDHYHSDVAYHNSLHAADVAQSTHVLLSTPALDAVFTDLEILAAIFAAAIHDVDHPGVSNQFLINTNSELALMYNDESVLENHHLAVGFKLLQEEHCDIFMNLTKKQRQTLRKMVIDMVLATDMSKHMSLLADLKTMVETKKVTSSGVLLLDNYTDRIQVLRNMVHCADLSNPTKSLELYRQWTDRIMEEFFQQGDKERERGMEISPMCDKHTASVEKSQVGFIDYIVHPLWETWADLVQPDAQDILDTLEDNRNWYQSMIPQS

Row | IC50 [1] | IC50 (PDE4Bcat) | melting point | Structure (SMILES) | Inhibition rate (total number of leukocytes in BALF) [2] | Inhibition rate (total number of leukocytes in BALF) ([2]; 10 mg/kg) | inhibition in vivo at 0.3 mg/kg [3]
1 | 0.1 to 1 µmol/L | 0.01 to 0.1 µmol/L |  | CCc1ccc2c(C3=NN(CCCCOc4ccc(C5=NNC(=O)CC5C)cc4F)C(=O)C3(C)C)ccc(OC)c2n1 (single isomer, unassigned; (+)) [Example 206, (+)-5-(2-Ethyl-8-methoxyquinolin-5-yl)-2-[4-[2-fluoro-4-(4-methyl-6-oxo-1,4,5,6-tetrahydropyridazin-3-yl)phenoxy]butyl]-4,4-dimethyl-2,4-dihydro-pyrazol-3-one] | + (60%>inhibition rate≧40%) |  | 
2 | < 0.01 µmol/L | 0.01 to 0.1 µmol/L |  | CCc1ccc2c(C3=NN(CCCCOc4ccc(C5=NNC(=O)CC5C)c(F)c4F)C(=O)C3(C)C)ccc(OC)c2n1 (single isomer, unassigned; (+)) [Example 210, (+)-5-(2-Ethyl-8-methoxyquinolin-5-yl)-2-[4-[2,3-difluoro-4-(4-methyl-6-oxo-1,4,5,6-tetrahydropyridazin-3-yl)phenoxy]butyl]-4,4-dimethyl-2,4-dihydro-pyrazol-3-one] |  | + (60%>inhibition rate≧40%) | 
3 | < 0.01 µmol/L | 0.01 to 0.1 µmol/L |  | CCc1ccc2c(C3=NN(CCCCOc4ccc(C5=NNC(=O)CC5C)cc4F)C(=O)C3(C)C)ccc(OC)c2n1 (single isomer, unassigned; (-)) [Example 207, (−)-5-(2-ethyl-8-methoxyquinolin-5-yl)-2-[4-[2-fluoro-4-(4-methyl-6-oxo-1,4,5,6-tetrahydropyridazin-3-yl)phenoxy]butyl]-4,4-dimethyl-2,4-dihydro-pyrazol-3-one] | + (60%>inhibition rate≧40%) |  | ≥ 90%
4 | < 0.01 µmol/L | 0.01 to 0.1 µmol/L |  | CCc1ccc2c(C3=NN(CCCCOc4ccc(C5=NNC(=O)CC5C)c(F)c4F)C(=O)C3(C)C)ccc(OC)c2n1 (single isomer, unassigned; (-)) [Example 211, (−)-5-(2-ethyl-8-methoxyquinolin-5-yl)-2-[4-[2,3-difluoro-4-(4-methyl-6-oxo-1,4,5,6-tetrahydropyridazin-3-yl)phenoxy]butyl]-4,4-dimethyl-2,4-dihydro-pyrazol-3-one] |  | ++ (80%≧inhibition rate≧60%) | ≥ 90%
5 | < 0.01 µmol/L | 0.01 to 0.1 µmol/L |  | COc1ccc(C2=NN(CCCCOc3ccc(C4=NNC(=O)C4(C)C)c(F)c3F)C(=O)C2(C)C)c2ccc(C)nc12 [Example 197, 2-[4-[2,3-Difluoro-4-(4,4-dimethyl-5-oxo-4,5-dihydro-1H-pyrazol-3-yl)phenoxy]butyl]-5-(8-methoxy-2-methylquinolin-5-yl)-4,4-dimethyl-2,4-dihydro-pyrazol-3-one] | +++ (inhibition rate≧80%) |  | ≥ 90%
6 | < 0.01 µmol/L | 0.01 to 0.1 µmol/L |  | CCc1ccc2c(C3=NN(CCCCOc4ccc(C5=NNC(=O)CC5C)cc4F)C(=O)C3(C)C)ccc(OC)c2n1 (centres unmarked) [Example 205, 5-(2-Ethyl-8-methoxyquinolin-5-yl)-2-[4-[2-fluoro-4-(4-methyl-6-oxo-1,4,5,6-tetrahydropyridazin-3-yl)phenoxy]butyl]-4,4-dimethyl-2,4-dihydro-pyrazol-3-one] | +++ (inhibition rate≧80%) |  | ≥ 90%
7 | < 0.01 µmol/L | 0.01 to 0.1 µmol/L |  | CCc1ccc2c(C3=NN(CCCCOc4ccc(C5=NNC(=O)CC5C)c(F)c4F)C(=O)C3(C)C)ccc(OC)c2n1 (centres unmarked) [Example 209, 5-(2-Ethyl-8-methoxyquinolin-5-yl)-2-[4-[2,3-difluoro-4-(4-methyl-6-oxo-1,4,5,6-tetrahydropyridazin-3-yl)phenoxy]butyl]-4,4-dimethyl-2,4-dihydro-pyrazol-3-one] | +++ (inhibition rate≧80%) |  | ≥ 90%
8 | < 0.01 µmol/L | 0.1 to 1 µmol/L | 176 to 177 °C | COc1ccc(C2=NN(CCCCOc3ccc(C4=NNC(=O)CC4)c(F)c3F)C(=O)C2(C)C)c2cc(C(F)(F)F)sc12 [Example 222, 2-[4-[2,3-Difluoro-4-(6-oxo-1,4,5,6-tetrahydropyridazin-3-yl)phenoxy]butyl]-5-(7-methoxy-2-trifluoromethylbenzo[b]thiophen-4-yl)-4,4-dimethyl-2,4-dihydro-pyrazol-3-one] |  |  | 
9 | 0.01 to 0.1 µmol/L | 0.01 to 0.1 µmol/L | 167 to 168 °C | COc1ccc(C2=NN(CCCCOc3ccc(C4=NNC(=O)C4(C)C)c(F)c3F)C(=O)C2(C)C)c2cc(C(F)(F)F)sc12 [Example 223, 2-[4-[2,3-Difluoro-4-(4,4-dimethyl-5-oxo-4,5-dihydro-1H-pyrazol-3-yl)phenoxy]butyl]-5-(7-methoxy-2-trifluoromethylbenzo[b]thiophen-4-yl)-4,4-dimethyl-2,4-dihydro-pyrazol-3-one] |  |  | 
10 | < 0.01 µmol/L | 0.01 to 0.1 µmol/L | 137 to 138 °C | COc1ccc(C2=NN(CCCCOc3ccc(C4=NNC(=O)CC4C)c(F)c3F)C(=O)C2(C)C)c2cc(C(F)(F)F)sc12 (centres unmarked) [Example 224, 2-[4-[2,3-Difluoro-4-(4-methyl-6-oxo-1,4,5,6-tetrahydropyridazin-3-yl)phenoxy]butyl]-5-(7-methoxy-2-trifluoromethylbenzo[b]thiophen-4-yl)-4,4-dimethyl-2,4-dihydro-pyrazol-3-one] |  |  | 

From patent US20100130738A1 (priority 2007, published 2010)
